{
  "source": "patent US20070087744A1",
  "about": "“METHOD FOR REDUCING THE TIME DELAY IN A TELEPHONE SYSTEM” (priority 2003, published 2007)",
  "assay_in_all_cases": "In Vitro Minimum Inhibitory Concentration",
  "type_in_all_cases": "cell-based",
  "key": {"[1]": {"tested_on": "Bacteroides fragilis", "procedure": "(§1) Subsequent dilutions had the concentration calculated in ppm. Each concentration was challenged with an equal volume of microbial inoculums. After incubation the lowest concentration showing “No-Growth” was recorded as the Minimum Inhibitory Concentration."}, "[2]": {"tested_on": "Acinetobacter baumannii", "procedure": "as §1"}, "[3]": {"tested_on": "Candida parapsilosis", "conditions": "Lodderomyces parapsilosis; clinical isolate 040400Cp2", "procedure": "as §1"}, "[4]": {"tested_on": "Haemophilus influenzae", "procedure": "as §1"}, "[5]": {"tested_on": "Klebsiella pneumoniae", "procedure": "as §1"}, "[6]": {"tested_on": "Enterobacter aerogenes", "conditions": "Klebsiella aerogenes", "procedure": "as §1"}, "[7]": {"tested_on": "Escherichia coli", "conditions": "for MIC: Escherichia coli", "procedure": "as §1"}, "[8]": {"tested_on": "Micrococcus luteus", "conditions": "ATCC7468, ATCC 7468", "procedure": "as §1"}, "[9]": {"tested_on": "Enterococcus faecalis", "procedure": "as §1"}, "[10]": {"tested_on": "Candida albicans", "procedure": "as §1"}, "[11]": {"tested_on": "Klebsiella oxytoca", "procedure": "as §1"}, "[12]": {"tested_on": "Candida tropicalis", "conditions": "ATCC750, ATCC 750", "procedure": "as §1"}, "[13]": {"tested_on": "Enterococcus faecium", "procedure": "as §1"}},
  "data": [
    {"smiles": "CCO", "note": "[70% ethyl alcohol, ethyl alcohol]", "values": [
      {"measurement": "MIC", "setting": "[1]; ATCC25285, ATCC 25285", "result": 8750, "unit": "µg/mL"},
      {"measurement": "MIC", "setting": "[1]; clinical isolate 061901Bf2", "result": 8750, "unit": "µg/mL"},
      {"measurement": "MIC", "setting": "[2]; ATCC19606, ATCC 19606, trypticase soy broth", "result": 4380, "unit": "µg/mL"},
      {"measurement": "MIC", "setting": "[2]; clinical isolate 061901 Ab1", "result": 8750, "unit": "µg/mL"},
      {"measurement": "MIC", "setting": "[3]", "result": 17500, "unit": "µg/mL"},
      {"measurement": "MIC", "setting": "[4]; ATCC19418, ATCC 19418", "result": 5830, "unit": "µg/mL"},
      {"measurement": "MIC", "setting": "[4]; clinical isolate 121699Hi", "result": 5830, "unit": "µg/mL"},
      {"measurement": "MIC", "setting": "[5]; ATCC13883, ATCC 13883", "result": 4380, "unit": "µg/mL"},
      {"measurement": "MIC", "setting": "[5]; clinical isolate 06190Kpn1", "result": 8750, "unit": "µg/mL"},
      {"measurement": "MIC", "setting": "[6]; ATCC13048, ATCC 13048", "result": 8750, "unit": "µg/mL"},
      {"measurement": "MIC", "setting": "[6]; clinical isolate 040400Ea1", "result": 8750, "unit": "µg/mL"},
      {"measurement": "MIC", "setting": "[7]; ATCC11229, ATCC 11229", "result": 8750, "unit": "µg/mL"},
      {"measurement": "MIC", "setting": "[7]; ATCC25922, ATCC 25922", "result": 8750, "unit": "µg/mL"},
      {"measurement": "MIC", "setting": "[7]; clinical isolate 051599Ec", "result": 8750, "unit": "µg/mL"},
      {"measurement": "Minimum Inhibitory Concentration", "setting": "[7]; clinical isolate 070399Ec", "result": 8750, "unit": "ppm"},
      {"measurement": "MIC", "setting": "[8]", "result": 8750, "unit": "µg/mL"},
      {"measurement": "MIC", "setting": "[9]; ATCC29212, ATCC 29212", "result": 8750, "unit": "µg/mL"},
      {"measurement": "MIC", "setting": "[9]; clinical isolate 040400Esp17", "result": 8750, "unit": "µg/mL"},
      {"measurement": "MIC", "setting": "[10]; ATCC10231, ATCC 10231", "result": 17500, "unit": "µg/mL"},
      {"measurement": "MIC", "setting": "[10]; clinical isolate 040400Ca2", "result": 17500, "unit": "µg/mL"},
      {"measurement": "MIC", "setting": "[11]; ATCC43165, ATCC 43165", "result": 8750, "unit": "µg/mL"},
      {"measurement": "MIC", "setting": "[11]; clinical isolate 061901Ko1", "result": 8750, "unit": "µg/mL"},
      {"measurement": "MIC", "setting": "[12]", "result": 17500, "unit": "µg/mL"},
      {"measurement": "MIC", "setting": "[13]; ATCC51559, ATCC 51559", "result": 8750, "unit": "µg/mL"},
      {"measurement": "MIC", "setting": "[13]; clinical isolate 061901Efm1", "result": 8750, "unit": "µg/mL"}
    ]}
  ]
}
